Our source for the IC50 values is ChEMBL document CHEMBL5728460, “Pyrimidine compounds and pyrimido indole compounds and methods of use” (2021).

SMILES strings stand for the structures.

The nature of assay [1]: TBD: TBD.
Assay [2] concerns the target Epidermal growth factor receptor (Homo sapiens, UniProt P00533). Kind of assay: TBD: TBD.
For a further assay, the target named is T1, Dihydrofolate reductase (Homo sapiens, UniProt P00374).
T1 sequence (P00374 whole entry): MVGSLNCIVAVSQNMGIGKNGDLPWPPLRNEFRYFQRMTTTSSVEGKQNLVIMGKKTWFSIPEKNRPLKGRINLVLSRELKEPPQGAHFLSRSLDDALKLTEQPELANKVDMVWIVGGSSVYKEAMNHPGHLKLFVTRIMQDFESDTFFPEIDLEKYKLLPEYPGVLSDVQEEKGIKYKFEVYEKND
In words: TBD: TBD.

Assay [3] deals with Vascular endothelial growth factor receptor 2 (Homo sapiens, UniProt P35968). Kind of assay: TBD: TBD.
Chain of Vascular endothelial growth factor receptor 2 (P35968 whole entry): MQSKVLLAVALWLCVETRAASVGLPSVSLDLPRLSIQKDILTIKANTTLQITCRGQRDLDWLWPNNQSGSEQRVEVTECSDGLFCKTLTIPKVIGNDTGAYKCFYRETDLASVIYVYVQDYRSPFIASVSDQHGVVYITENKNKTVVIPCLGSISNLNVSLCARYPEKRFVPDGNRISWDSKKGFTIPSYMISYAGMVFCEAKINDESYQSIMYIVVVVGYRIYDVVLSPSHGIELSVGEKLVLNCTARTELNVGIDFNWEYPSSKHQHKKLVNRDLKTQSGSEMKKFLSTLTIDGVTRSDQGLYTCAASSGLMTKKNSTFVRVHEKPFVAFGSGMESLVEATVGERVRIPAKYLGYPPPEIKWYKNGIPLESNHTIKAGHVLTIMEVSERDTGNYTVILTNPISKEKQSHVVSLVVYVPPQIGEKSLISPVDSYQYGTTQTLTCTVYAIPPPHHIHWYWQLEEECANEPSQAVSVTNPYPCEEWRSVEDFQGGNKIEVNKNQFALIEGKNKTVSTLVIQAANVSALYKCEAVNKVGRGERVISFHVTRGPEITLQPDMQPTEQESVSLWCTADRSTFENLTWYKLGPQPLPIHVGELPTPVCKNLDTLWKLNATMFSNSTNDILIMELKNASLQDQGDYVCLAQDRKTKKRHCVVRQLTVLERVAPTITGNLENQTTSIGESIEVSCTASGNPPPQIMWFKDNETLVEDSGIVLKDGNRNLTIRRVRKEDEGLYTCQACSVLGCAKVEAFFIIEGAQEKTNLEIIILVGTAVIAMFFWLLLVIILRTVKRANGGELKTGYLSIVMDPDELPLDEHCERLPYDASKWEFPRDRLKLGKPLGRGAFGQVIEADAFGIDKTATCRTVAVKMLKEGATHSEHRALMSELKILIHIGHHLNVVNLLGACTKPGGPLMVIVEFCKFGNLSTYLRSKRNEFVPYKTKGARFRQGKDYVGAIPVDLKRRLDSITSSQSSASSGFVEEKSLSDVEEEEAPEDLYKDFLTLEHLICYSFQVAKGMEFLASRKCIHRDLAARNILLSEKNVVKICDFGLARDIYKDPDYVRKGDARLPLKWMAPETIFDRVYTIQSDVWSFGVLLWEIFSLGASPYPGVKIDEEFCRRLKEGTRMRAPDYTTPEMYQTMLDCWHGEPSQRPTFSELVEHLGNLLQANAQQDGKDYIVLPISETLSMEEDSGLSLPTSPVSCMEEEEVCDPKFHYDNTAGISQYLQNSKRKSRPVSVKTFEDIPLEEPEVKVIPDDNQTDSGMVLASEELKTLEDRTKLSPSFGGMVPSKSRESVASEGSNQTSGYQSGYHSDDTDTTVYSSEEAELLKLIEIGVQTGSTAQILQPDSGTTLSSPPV
Assay [4] concerns the target Vascular endothelial growth factor receptor 1 (Homo sapiens, UniProt P17948). Kind of assay: TBD: TBD.
The target of assay [5] is Platelet-derived growth factor receptor beta (Homo sapiens, UniProt P09619). Kind of assay: TBD: TBD.
Chain of Platelet-derived growth factor receptor beta (P09619 whole entry): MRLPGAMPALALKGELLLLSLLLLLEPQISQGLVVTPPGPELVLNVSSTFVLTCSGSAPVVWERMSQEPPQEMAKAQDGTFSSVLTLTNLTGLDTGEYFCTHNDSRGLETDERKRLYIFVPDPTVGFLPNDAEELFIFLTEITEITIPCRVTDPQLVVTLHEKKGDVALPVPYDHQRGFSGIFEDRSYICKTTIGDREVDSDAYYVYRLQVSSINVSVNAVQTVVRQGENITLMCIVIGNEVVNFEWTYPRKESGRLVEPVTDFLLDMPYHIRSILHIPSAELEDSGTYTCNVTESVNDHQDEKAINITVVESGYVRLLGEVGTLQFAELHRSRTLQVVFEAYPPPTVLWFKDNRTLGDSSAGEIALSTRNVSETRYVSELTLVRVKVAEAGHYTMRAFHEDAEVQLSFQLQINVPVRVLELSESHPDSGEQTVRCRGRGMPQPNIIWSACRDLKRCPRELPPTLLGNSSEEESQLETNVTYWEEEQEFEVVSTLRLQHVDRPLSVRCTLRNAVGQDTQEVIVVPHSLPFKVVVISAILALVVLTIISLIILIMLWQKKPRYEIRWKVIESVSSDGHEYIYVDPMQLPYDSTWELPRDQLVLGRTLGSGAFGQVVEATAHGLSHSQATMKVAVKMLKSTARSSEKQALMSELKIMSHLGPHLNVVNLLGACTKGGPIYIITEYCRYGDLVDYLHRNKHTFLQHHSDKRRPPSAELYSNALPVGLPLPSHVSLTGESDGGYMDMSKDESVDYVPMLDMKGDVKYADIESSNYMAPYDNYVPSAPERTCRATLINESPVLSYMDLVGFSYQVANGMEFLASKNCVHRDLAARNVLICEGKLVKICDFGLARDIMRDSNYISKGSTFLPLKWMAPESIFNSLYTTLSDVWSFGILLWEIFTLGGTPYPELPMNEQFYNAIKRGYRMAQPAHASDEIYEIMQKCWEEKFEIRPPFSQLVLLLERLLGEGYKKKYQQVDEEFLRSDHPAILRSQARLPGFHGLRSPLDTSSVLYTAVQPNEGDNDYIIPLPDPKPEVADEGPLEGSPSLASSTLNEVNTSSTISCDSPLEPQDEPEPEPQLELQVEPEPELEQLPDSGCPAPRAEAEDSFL

Chain of Epidermal growth factor receptor (P00533 whole entry): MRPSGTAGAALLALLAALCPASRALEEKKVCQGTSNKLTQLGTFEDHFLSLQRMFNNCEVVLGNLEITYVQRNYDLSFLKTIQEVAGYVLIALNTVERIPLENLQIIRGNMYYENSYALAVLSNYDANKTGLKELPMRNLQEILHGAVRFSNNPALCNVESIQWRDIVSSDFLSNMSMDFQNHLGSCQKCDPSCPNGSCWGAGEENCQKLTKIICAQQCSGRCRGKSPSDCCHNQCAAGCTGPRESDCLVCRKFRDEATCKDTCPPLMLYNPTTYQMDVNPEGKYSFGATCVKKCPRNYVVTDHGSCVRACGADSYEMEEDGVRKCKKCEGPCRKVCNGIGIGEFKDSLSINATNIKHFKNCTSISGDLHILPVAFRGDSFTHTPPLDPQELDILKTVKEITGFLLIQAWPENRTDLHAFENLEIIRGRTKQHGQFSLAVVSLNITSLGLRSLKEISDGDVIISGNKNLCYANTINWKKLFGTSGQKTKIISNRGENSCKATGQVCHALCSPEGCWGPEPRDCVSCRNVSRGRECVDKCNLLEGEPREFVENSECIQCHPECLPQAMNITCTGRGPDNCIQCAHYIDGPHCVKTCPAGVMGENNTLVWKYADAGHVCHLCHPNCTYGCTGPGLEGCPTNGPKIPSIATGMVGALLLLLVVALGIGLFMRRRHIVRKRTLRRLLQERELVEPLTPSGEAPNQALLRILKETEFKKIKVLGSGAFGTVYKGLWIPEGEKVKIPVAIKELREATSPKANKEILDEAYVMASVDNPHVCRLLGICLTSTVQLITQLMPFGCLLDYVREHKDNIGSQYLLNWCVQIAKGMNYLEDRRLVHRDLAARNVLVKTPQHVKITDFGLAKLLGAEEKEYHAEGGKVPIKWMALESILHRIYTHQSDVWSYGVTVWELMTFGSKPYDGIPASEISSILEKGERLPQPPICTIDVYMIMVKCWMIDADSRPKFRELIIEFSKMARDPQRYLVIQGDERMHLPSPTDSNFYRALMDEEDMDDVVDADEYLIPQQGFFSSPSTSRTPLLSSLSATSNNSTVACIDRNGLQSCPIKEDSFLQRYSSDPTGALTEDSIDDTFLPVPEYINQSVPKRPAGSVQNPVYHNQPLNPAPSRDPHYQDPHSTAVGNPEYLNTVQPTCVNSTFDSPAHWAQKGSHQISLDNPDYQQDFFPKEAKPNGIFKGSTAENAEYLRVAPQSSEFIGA
Chain of Vascular endothelial growth factor receptor 1 (P17948 whole entry): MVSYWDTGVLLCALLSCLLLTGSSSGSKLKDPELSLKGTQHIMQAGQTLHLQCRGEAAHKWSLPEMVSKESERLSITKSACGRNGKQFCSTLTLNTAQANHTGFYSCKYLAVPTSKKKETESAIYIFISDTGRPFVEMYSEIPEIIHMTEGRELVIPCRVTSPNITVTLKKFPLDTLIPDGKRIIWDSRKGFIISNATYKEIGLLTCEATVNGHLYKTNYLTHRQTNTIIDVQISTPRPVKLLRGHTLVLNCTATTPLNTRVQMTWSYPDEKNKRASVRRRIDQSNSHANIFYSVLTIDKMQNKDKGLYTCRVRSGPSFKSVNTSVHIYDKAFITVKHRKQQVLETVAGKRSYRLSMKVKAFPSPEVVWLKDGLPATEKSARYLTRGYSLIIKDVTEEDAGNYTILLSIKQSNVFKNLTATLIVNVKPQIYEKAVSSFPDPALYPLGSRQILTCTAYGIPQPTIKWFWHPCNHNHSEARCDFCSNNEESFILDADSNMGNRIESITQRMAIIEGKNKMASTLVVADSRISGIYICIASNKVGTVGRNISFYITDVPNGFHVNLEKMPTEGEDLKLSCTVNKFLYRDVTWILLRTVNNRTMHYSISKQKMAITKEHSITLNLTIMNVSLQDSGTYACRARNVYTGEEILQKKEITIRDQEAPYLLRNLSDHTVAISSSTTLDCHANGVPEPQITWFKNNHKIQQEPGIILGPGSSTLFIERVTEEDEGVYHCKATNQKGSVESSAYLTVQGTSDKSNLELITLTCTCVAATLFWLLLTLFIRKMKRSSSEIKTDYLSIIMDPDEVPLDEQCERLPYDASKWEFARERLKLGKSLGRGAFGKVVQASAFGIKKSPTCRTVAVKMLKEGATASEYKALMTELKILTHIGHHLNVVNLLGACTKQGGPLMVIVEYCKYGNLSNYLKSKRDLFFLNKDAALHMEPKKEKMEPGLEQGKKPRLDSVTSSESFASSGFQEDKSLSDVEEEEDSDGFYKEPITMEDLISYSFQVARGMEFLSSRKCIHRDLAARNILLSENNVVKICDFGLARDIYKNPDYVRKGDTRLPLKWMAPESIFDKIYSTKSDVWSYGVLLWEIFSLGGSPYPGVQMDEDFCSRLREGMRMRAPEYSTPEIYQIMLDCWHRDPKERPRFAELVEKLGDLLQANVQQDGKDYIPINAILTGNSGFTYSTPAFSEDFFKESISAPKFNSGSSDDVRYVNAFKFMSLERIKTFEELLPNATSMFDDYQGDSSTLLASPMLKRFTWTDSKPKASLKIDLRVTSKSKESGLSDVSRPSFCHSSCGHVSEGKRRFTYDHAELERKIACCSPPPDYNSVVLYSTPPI

In the case of `COc1cc(C[C@H]2NCCc3cc(O)c(O)cc32)cc(OC)c1OC`, 0.0021 µM corresponded to half-maximal inhibition in assay [1] (IC50).

Regarding `COc1ccc(Sc2sc3nc(N)nc(N)c3c2C)cc1OC`, the figures for the concentration for half-maximal inhibition (IC50) (in assay [2]; against Dihydrofolate reductase; in assay [1]) were 15.1 µM, 0.91 µM and 3.9 µM, respectively.

Take `COc1ccccc1Sc1sc2nc(N)nc(N)c2c1C`: the IC50 worked out at 10.4 µM in assay [2], 56.3 µM in assay [3], 160 µM in assay [4] and 40.3 µM in assay [5].

As for `COc1ccc(Sc2sc3nc(N)nc(N)c3c2C)cc1`, on Dihydrofolate reductase, half-maximal inhibition (IC50) required 1.41 µM.

Consider `COc1ccc(Sc2c(C)c3c(N)nc(N)nc3n2C)cc1OC`, for which the midpoint of inhibition against Dihydrofolate reductase, the IC50, lay at 1.1 µM.

Broadly, the IC50 is the concentration needed to halve the response being measured. A high value points to lower potency.
